{"source": "patent US8688427B2", "about": "“Enzyme catalysts for diels-alder reactions” (University of Washington, priority 2008, dated 2014)", "key": {"[1]": {"system": "Diels-Alderase DA_20_00, computational design on Loligo vulgaris diisopropylfluorophosphatase scaffold (PDB-ID 1E1A, SEQ ID NO:2), SEQ ID NO:4", "assay": "Kinetics of Diels-Alder reaction catalysed by original design DA_20_00", "assay_type": "biochemical", "conditions": "298K, PBS, error = 95% confidence interval", "procedure": "(§1) The Diels-Alder reactions were performed in PBS, at 25° C., with 4% DMSO. The DMSO came from the diene, for which the stock solution (100 mM) was made in DMSO and always diluted such that the final reaction would contain 4% DMSO. After incubation of the desired amount of diene and dienophile in the presence or absence of the protein, time points were taken of the reaction (5 μL) and quenched in a solution of 80:20 acetonitrile:water with 0.1% formic acid and 1 mM Benzoic Acid (95 μL). This reaction was incubated for 5 minutes and then the precipitated protein filtered using a Millipore multiscreen solvinert filter plate (Product Number: MSRLN0450). 20 μL of the filtered quench solution was then injected and analyzed using a liquid chromatography-tandem mass spectroscopy (LC-MSMS) assay.\nThis active design (DA—20—00) was created from a 6-bladed beta barrel propeller scaffold (PDB-ID 1E1A; a diisopropylfluorophosphatase from Loligo vulgaris). […]\nThe errors represent the calculated 95% confidence interval. The parameter a describes the cooperativity of binding between the two substrates: a value greater than one indicates negative cooperativity, whereas a value lower then one indicates positive cooperativity. α could not be determined for DA—20—00. […]"}, "[2]": {"system": "catalytic antibody mAb 4D5", "conditions": "310K, cited from earlier work"}, "[3]": {"system": "Diels-Alderase DA_20_10, variant of DA_20_00 (Loligo vulgaris diisopropylfluorophosphatase scaffold, SEQ ID NO:2) with A21T/A74I/S271A/A173C/Q149R/A272N, SEQ …", "assay": "Kinetics of Diels-Alder reaction catalysed by optimized DA_20_10", "assay_type": "biochemical", "conditions": "298K", "procedure": "(A) Dependence of reaction velocity on diene concentration for different fixed dienophile concentrations. The diene concentration was varied from 3.0 to 0.18 mM with a fixed concentration of 100 mM (⋄), 66 mM (Δ), 44 mM (⋄), 30 mM (◯), 20 mM (◯), or 13 mM (●) dienophile (B) Dependence of reaction velocity on dienophile concentration for different fixed diene concentrations. The dienophile was varied from 100 to 13.0 mM with a fixed concentration of 3 mM (♦), 2 mM (▴), 1.3 mM (∇), 0.9 mM (Δ), 0.6 mM (⋄), 0.4 mM (□), 0.26 mM (◯), or 0.18 mM (●) […]. Reactions were carried out with 20 μM protein in PBS at 298 K.\nas §1\nTo summarize the optimization rounds, residues contacting the transition state in DA—20—00 were mutated individually to sets of residues predicted to retain or improve transition state binding and bolster the two catalytic residues. […] Three of the mutations (FIG. 6C) likely improve the packing around the transition state (A741, A21 T) or catalytic glutamine (A173C). Two of the mutations likely improve the overall electrostatic complementarity with the bound substrates and transition state: Q149R hydrogen bonds to the carboxylate on the diene and S271A makes the dienophile environment more non polar.\nThe kinetics of the DA—20—10 catalyzed reaction was characterized by measuring the dependence of the reaction velocity on the concentration of both diene and dienophile. The effective molarity (kcat/kuncat) of DA—20—10 is 100 M, and the rate enhancement (kcat/(kuncat*KM_diene)) in the presence of saturating dienophile and limiting diene is 1.0×10^5. At high substrate concentrations DA—20—10 proceeds for more than 30 turnovers before the enzyme loses activity. At higher enzyme concentrations more than 80% of the diene substrate is converted to product.\nThe errors represent the calculated 95% confidence interval. The parameter a describes the cooperativity of binding between the two substrates: a value greater than one indicates negative cooperativity, whereas a value lower then one indicates positive cooperativity. α could not be determined for DA—20—00. Kinetic parameters for catalytic antibodies 7D4 and 4D5 were taken from (10, 17)."}, "[4]": {"system": "catalytic antibody mAb 7D4", "conditions": "310K, cited from earlier work"}}, "data": [{"smiles": "C=C/C=C/NC(=O)OCc1ccc(C(=O)O)cc1", "note": "[diene, 4-carboxybenzyl trans-1,3-butadiene-1-carbamate]", "values": [{"measurement": "kcat", "setting": "[1]; diene + dienophile reaction", "value": "2.8e-06 ± 5.6e-07", "unit": "s⁻¹"}, {"measurement": "Km", "setting": "[1]; read-out: KM-diene", "value": "3530 ± 1500", "unit": "µM"}, {"measurement": "kcat", "setting": "[2]; diene + dienophile reaction", "value": "5.83e-05", "unit": "s⁻¹"}, {"measurement": "a (cooperativity of binding between the two substrates)", "setting": "[2]; diene and dienophile", "value": 1}, {"measurement": "Km", "setting": "[2]; read-out: KM-diene", "value": 1600, "unit": "µM"}, {"measurement": "kcat", "setting": "[3]; PBS, 20 μM protein, diene + dienophile reaction, error = 95% confidence interval", "value": "0.000678 ± 8.3e-05", "unit": "s⁻¹"}, {"measurement": "Km", "setting": "[3]; PBS, 20 μM protein, error = 95% confidence interval, read-out: KM-diene", "value": "980 ± 200", "unit": "µM"}, {"measurement": "a (cooperativity of binding between the two substrates)", "setting": "[3]; diene and dienophile, >1 indicates negative cooperativity", "value": "1.7 ± 0.7"}, {"measurement": "effective molarity (kcat/kuncat)", "setting": "[3]; diene + dienophile reaction", "value": 100, "unit": "M"}, {"measurement": "kcat", "setting": "[4]; diene + dienophile reaction", "value": "5.83e-05", "unit": "s⁻¹"}, {"measurement": "a (cooperativity of binding between the two substrates)", "setting": "[4]; diene and dienophile", "value": 1}, {"measurement": "Km", "setting": "[4]; read-out: KM-diene", "value": 960, "unit": "µM"}]}]}
